Tests used:
rice [1] = assay: Test B flooded paddy test; assay type: in vivo, Oryza sativa; conditions: 1000 g ai/ha, scale 0 to 100 (0 no effect, 100 complete control)
Method in brief: (§1)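 Visual ratings, 0 (no effect) to 100 (complete control), made versus controls after 13–15 d greenhouse. Paddy plants treated at 2-leaf stage; postemergence plants at 1- to 4-leaf stage, 2–18 cm tall.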

morningglory = assay: Test B pre-/postemergence herbicide test; assay type: in vivo, Ipomoea coccinea; conditions: for Morningglory plant response rating: postemergence
Method in brief: (§2)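 Visual rating, 0 (no effect) to 100 (complete control), versus untreated controls after 13–15 d in greenhouse. Pre- and postemergence applications (postemergence plants 2–18 cm, 1–4 leaves); flooded paddy arm at 2-leaf stage. Compounds in non-phytotoxic solvent plus surfactant.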

large crabgrass = assay: Test B pre-/postemergence herbicide test; assay type: in vivo, Digitaria sanguinalis; conditions: for Crabgrass, Large plant response rating: postemergence
Method in brief: (§3)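 Seeds were planted and treated preemergence with compounds formulated in a non-phytotoxic solvent mixture containing surfactant, while plants at the 1- to 4-leaf stage (2 to 18 cm) received postemergence sprays. Flooded paddy plants were grown to the 2-leaf stage. After 13 to 15 days in a greenhouse, injury was visually rated 0–100 against untreated controls.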

pigweed = assay: Test B pre-/postemergence herbicide test; assay type: in vivo, Amaranthus retroflexus; conditions: for Pigweed plant response rating: postemergence
Method in brief: as §3

ducksalad [2] = assay: Test B flooded paddy test; assay type: in vivo, Heteranthera limosa; conditions: 1000 g ai/ha, scale 0 to 100 (0 no effect, 100 complete control)
Method in brief: as §1

lambsquarters = assay: Test B pre-/postemergence herbicide test; assay type: in vivo, Chenopodium album; conditions: for Lambsquarters plant response rating: postemergence
Method in brief: as §3

velvetleaf = assay: Test B pre-/postemergence herbicide test; assay type: in vivo, Abutilon theophrasti; conditions: for Velvetleaf plant response rating: postemergence
Method in brief: as §3

wild oat = assay: Test B postemergence herbicide test; assay type: in vivo, Avena fatua; conditions: postemergence
Method in brief: (§4)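 Treated at 2-leaf (paddy) or 1–4-leaf, 2–18 cm (postemergence); greenhouse 13–15 d; visual score vs control, 0 none to 100 complete control; dash = not tested.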

Surinam grass = assay: Test B pre-/postemergence herbicide test; assay type: in vivo, Urochloa decumbens; conditions: for Surinam Grass plant response rating: postemergence
Method in brief: as §3

[3] = test system: small flower umbrella sedge; assay: Test B flooded paddy test; assay type: in vivo, Cyperus difformis; conditions: 1000 g ai/ha, scale 0 to 100 (0 no effect, 100 complete control)
Method in brief: as §1

barnyardgrass [4] = assay: Test B flooded paddy test; assay type: in vivo, Echinochloa crus-galli; conditions: 1000 g ai/ha, scale 0 to 100 (0 no effect, 100 complete control)
Method in brief: as §1

barnyardgrass [5] = assay: Test B pre-/postemergence herbicide test; assay type: in vivo, Echinochloa crus-galli; conditions: for Barnyardgrass plant response rating: postemergence, scale 0 (no effect) to 100 (complete control)
Method in brief: as §2

blackgrass = assay: Test B postemergence herbicide test; assay type: in vivo, Alopecurus myosuroides; conditions: postemergence, visual rating, scale 0 (no effect) to 100 (complete control)
Method in brief: as §1

corn = assay: Test B pre-/postemergence herbicide test; assay type: in vivo, Zea mays; conditions: for Corn plant response rating: postemergence
Method in brief: as §3

wheat = assay: Test B postemergence herbicide test; assay type: in vivo, Triticum aestivum; design: key to Wheat plant response rating: 0 = no effect, 100 = complete control; conditions: postemergence
Method in brief: as §4

ducksalad [6] = assay: Test C flooded paddy test; assay type: in vivo, Heteranthera limosa
[7] = test system: smallflower umbrella sedge; assay: Test C flooded paddy test; assay type: in vivo, Cyperus difformis
giant foxtail = assay: Test B pre-/postemergence herbicide test; assay type: in vivo, Setaria faberi; conditions: for Foxtail, Giant plant response rating: postemergence
Method in brief: as §3

cocklebur = assay: Test B pre-/postemergence herbicide test; assay type: in vivo, Xanthium strumarium; conditions: for Cocklebur plant response rating: postemergence, scale 0 (no effect) to 100 (complete control)
Method in brief: as §2

barnyardgrass [8] = assay: Test C flooded paddy test; assay type: in vivo, Echinochloa crus-galli
Method in brief: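 After a postemergence application at 1 to 4 leaves (plants 2–18 cm high), or at 2 leaves for barnyardgrass in flooded paddy, plants stayed in the greenhouse for 12 to 14 days. Damage was then judged visually relative to control plants, with 100 indicating complete control.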

rice [9] = assay: Test C flooded paddy test; assay type: in vivo, Oryza sativa
Method in brief: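 Postemergence sprays applied to plants 2 to 18 cm tall (1- to 4-leaf stage); paddy species grown to 2-leaf stage under flooding. After 12 to 14 days in greenhouse, visual rating versus untreated controls on 0–100 scale (0 no effect, 100 complete control).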

rice [10] = assay: Test B pre-/postemergence herbicide test; assay type: in vivo, Oryza sativa; conditions: 0 = no effect, 100 = complete control, preemergence
Method in brief: as §3

[11] = 125 g ai/ha, 0 = no effect, 100 = complete control, preemergence
[12] = 500 g ai/ha, visual rating, 0 = no effect, 100 = complete control, preemergence
[13] = 125 g ai/ha, visual rating, scale 0 (no effect) to 100 (complete control)
[14] = 500 g ai/ha, scale 0 to 100, 0 is no effect, 100 is complete control
[15] = 125 g ai/ha, scale 0 to 100 (0 no effect, 100 complete control)
[16] = 250 g ai/ha, scale of 0 to 100, 0 is no effect, 100 is complete control
[17] = 500 g ai/ha, visual rating after 12 to 14 days, scale 0 to 100 (0 no effect, 100 complete control)

CCn1nc(C(C)(C)C)cc1C(=O)Nc1cccc(C(=O)N2CCOCC2)n1 [Compound 247]
70: Lambsquarters plant response rating (lambsquarters; [14]) | Velvetleaf plant response rating (velvetleaf; [14]) | Sedge, Umbrella plant response rating [3] | Barnyardgrass plant response rating (barnyardgrass [4]) | Plant response rating, Foxtail, Giant (giant foxtail; [12])
30: Morningglory plant response rating (morningglory; [14]) | Velvetleaf plant response rating (velvetleaf; [13]) | Barnyardgrass plant response rating (0 to 100 scale) (barnyardgrass [5]; [11]) | Plant response rating, Corn (corn; [12]) | Cocklebur plant response rating (cocklebur; 500 g ai/ha, visual rating)
100: Pigweed plant response rating (0 to 100 scale) (pigweed; [11]) | Plant response rating, Pigweed (pigweed; [12]) | Plant response rating, Lambsquarters (lambsquarters; [12]) | Plant response rating, Velvetleaf (velvetleaf; [12])
40: Plant response rating, Rice (rice [10]; 500 g ai/ha, visual rating)
75: Plant response rating, Sedge, Umbrella [7, 17] | Plant response rating, Rice (rice [9]; [17])
0: Morningglory plant response rating (0 to 100 scale) (morningglory; [11]) | Oat, Wild plant response rating (wild oat; [13]) | Barnyardgrass plant response rating (barnyardgrass [5]; 125 g ai/ha, visual rating) | Blackgrass plant response rating (blackgrass; 125 g ai/ha) | Blackgrass plant response rating (blackgrass; 500 g ai/ha) | Corn plant response rating (0 to 100 scale) (corn; [11]) | Corn plant response rating (corn; [13]) | Wheat plant response rating (wheat; [13]) | Wheat plant response rating (wheat; [14]) | Ducksalad plant response rating (ducksalad [6]; 62 g ai/ha, scale 0 to 100) | Ducksalad plant response rating (ducksalad [6]; [15]) | Ducksalad plant response rating (ducksalad [6]; [16]) | Sedge, Umbrella plant response rating ([7]; 62 g ai/ha, scale 0 to 100) | Sedge, Umbrella plant response rating [7, 15] | Cocklebur plant response rating (0 to 100 scale) (cocklebur; [11]) | Plant response rating, Cocklebur (cocklebur; [12]) | Cocklebur plant response rating (cocklebur; 125 g ai/ha, visual rating) | Barnyardgrass plant response rating (barnyardgrass [8]; 62 g ai/ha, scale 0 to 100 (0 no effect, 100 complete control)) | Barnyardgrass plant response rating (barnyardgrass [8]; [15]) | Barnyardgrass plant response rating (barnyardgrass [8]; [16]) | Plant response rating, Barnyardgrass (barnyardgrass [8]; [17]) | Rice plant response rating (rice [9]; 62 g ai/ha, scale 0 to 100) | Rice plant response rating (rice [9]; [15])
80: Rice plant response rating (rice [1]) | Plant response rating, Crabgrass, Large (large crabgrass; [12]) | Ducksalad plant response rating (ducksalad [2]) | Lambsquarters plant response rating (0 to 100 scale) (lambsquarters; [11]) | Plant response rating, Barnyardgrass (barnyardgrass [5]; [12]) | Plant response rating, Ducksalad (ducksalad [6]; [17])
20: Morningglory plant response rating (morningglory; [13]) | Crabgrass, Large plant response rating (0 to 100 scale) (large crabgrass; [11]) | Velvetleaf plant response rating (0 to 100 scale) (velvetleaf; [11]) | Surinam Grass plant response rating (0 to 100 scale) (Surinam grass; [11]) | Surinam Grass plant response rating (Surinam grass; [14]) | Corn plant response rating (corn; [14]) | Foxtail, Giant plant response rating (giant foxtail; [14]) | Rice plant response rating (rice [9]; [16])
15: Sedge, Umbrella plant response rating [7, 16]
60: Pigweed plant response rating (pigweed; [13]) | Pigweed plant response rating (pigweed; [14]) | Lambsquarters plant response rating (lambsquarters; [13])
50: Plant response rating, Surinam Grass (Surinam grass; [12])
10: Plant response rating, Morningglory (morningglory; [12]) | Crabgrass, Large plant response rating (large crabgrass; [13]) | Crabgrass, Large plant response rating (large crabgrass; [14]) | Oat, Wild plant response rating (wild oat; [14]) | Surinam Grass plant response rating (Surinam grass; [13]) | Barnyardgrass plant response rating (barnyardgrass [5]; 500 g ai/ha, visual rating) | Foxtail, Giant plant response rating (0 to 100 scale) (giant foxtail; [11]) | Foxtail, Giant plant response rating (giant foxtail; [13]) | Rice plant response rating (0 to 100 scale) (rice [10]; 125 g ai/ha)

From patent US20060069132A1, “Azolecarboxamide herbicides” (priority 2004, published 2006)
